Patent publication US20210122771A1, “NEW MOLECULAR TWEEZERS AGAINST NEUROLOGICAL DISORDERS AND VIRAL INFECTIONS” (The Regents of the University of California, priority 2018, published 2021)
Where two headings read alike, the source gives them in different places.

What was measured:
Aβ42-induced toxicity = assay: Inhibition of Aβ42 toxicity in differentiated PC-12 cells (MTT/LDH); assay type: cell-based, rat; settings: Rattus norvegicus, PC-12, read-out: Inhibition of Aβ42 toxicity, IC50 (MTT)
Procedure: (§1) The highest concentration tested was 100 μM. Non-toxic compounds then were tested for their ability to inhibit the toxicity of 10 μM Aβ42 in the same assay. The parent compound 1 was used as a control in both cases.

ZIKV strain MR766 = assay: ZIKV infectivity (MTT) assay on Vero E6 cells; assay type: cell-based, Zika virus
Procedure: FIG. 2, panels A and B, illustrates the results of a ZIKV infectivity (MTT) assay with the new molecular tweezers on Vero E6 cells. […] After 3-4 days, the ZIKV induced cytopathic effect was quantified using the MTT assay.
20-μl of MTT solution (5 mg/ml in PBS) were added to 200 μl cells. Following a 3-h incubation at 37° C., cell-free supernatants were discarded and formazan crystals were dissolved in 100 μl of a 1:2 mixture of dimethyl sulfoxide and ethanol. Absorption was measured at 490 nm and baseline corrected at 650 nm using a VMax Kinetic ELISA microplate reader (Molecular Devices). To determine infection rates, sample values were subtracted from untreated control set to 100%. Error bars are standard deviations of replicates (FIG. 2, panels A and B). […] The selectivity index (SI) (Table 12) is calculated for each compound by dividing its CC50 value by the IC50 value.

KAA = assay type: binding; settings: fluorometric titration in aqueous buffer at neutral pH; read-out: Dissociation constant Kd, KAA
[1] = system: enveloped viruses such as HIV-1 and HSV-2; settings: cited from earlier work
[2] = PK screening in mice, three routes, two time points; settings: male, mouse, in vivo
Procedure: Each compound was administered to the mice at 2 mg/kg intravenously (I.V.), 2 mg/kg subcutaneously (S.C.), or 10 mg/kg orally (P.O.).

CCR5-tropic HIV-1 strain = assay: HIV-1 infectivity assay on TZM-bl cells; assay type: cell-based
Procedure: FIG. 3, panels A and B, illustrates the results of an HIV-1 infectivity assay with new tweezers on TZM-bl cells. CR5-tropic HIV-1 strain (20 ng/ml p24 antigen) was incubated for 10 min at 37° C. with indicated concentrations of the different compounds before these mixtures were used to infect TZM-bl cells. Three days later, infection rates were determined by measuring β-galactosidase activity.
Infection rates were determined 3 days post infection by detecting β-galactosidase activity in cellular lysates using the Tropix Gal-Screen kit (Applied Biosystems) and an Orion microplate luminometer (Berthold). Values represent % infection (mean) compared to buffer control (FIG. 3, panels A and B). […] Half-maximal inhibitory concentrations (IC50 values), were calculated. […] The selectivity index (SI) is calculated for each compound by dividing its CC50 value by its IC50 value (Table 12).

[3] = CellTiter-Glo cell viability assay on Vero E6 cells; assay type: cell-based; settings: African green monkey, CellTiter-Glo (ATP)
Procedure: (§2) FIG. 1, panels A and B, illustrates the results of a cell viability assay with the new molecular tweezers. Indicated concentrations of compounds were added to the cells and incubated for 2 days before […]-GLO® assay (Promega) was performed on TZM-bl cells (HIV-1 target cells) (panel A), or on Vero E6 (ZIKV target cells) (panel B). The experiment was performed in triplicates, raw data were normalized to untreated cells. Data represent mean±SD (n=3).
(§3) To determine the maximally tolerated concentrations of these derivatives in cell culture and to exclude cytotoxic effects in viral infectivity assays, a CellTiter-Glo® assay (Promega) was performed. This assay quantifies the amount of intracellular ATP. The compounds were directly added to TZM-bl cells (a HeLa derived HIV-1 reporter cell line TZM-bl; 20,000 cells/well, FIG. 1, panel A) or Vero E6 cells (a Zika virus (=ZIKV) permissive cell line; 12,000 cells/well, FIG. 1, panel B). Cell viability was quantified two days later by measuring ATP levels.

[4] = system: differentiated rat pheochromocytoma (PC-12) cells; assay: Self-toxicity in differentiated PC-12 cells (MTT and/or LDH); settings: MTT and/or LDH assays, highest concentration tested 100 μM
Procedure: as §1

Full 24-h PK profile = assay type: in vivo, mice; settings: 24-h profile; for Brain AUC / AUC / half-life: 7 time points; for AUC / half-life / bioavailability: mouse, in vivo; for AUC: read-out: Blood AUC; for bioavailability: read-out: Blood Bioavailability
Procedure: Based on the 2-time-point screen results, a full 24-h PK profile has been obtained for compounds 13 and 14. In these experiments, the blood and brain levels were measured at 7 time points—0.3, 0.6, 1, 2, 4, 8, and 24 h. Data for 1 are given for reference.

[5] = CellTiter-Glo cell viability assay on TZM-bl cells; assay type: cell-based; settings: human, CellTiter-Glo (ATP)
Procedure: as §2, §3

RGD = assay type: binding; settings: fluorometric titration in aqueous buffer at neutral pH; read-out: Dissociation constant Kd, RGD
[6] = CC50 value divided by IC50 value

O=P(O)(O)Oc1c2c(c(OP(=O)(O)O)c3c1C1CC3c3cc4c(cc31)C1CC4c3ccccc31)C1CC2c2cc3c(cc21)C1CC3c2ccccc21 [Compound 1, CLR01, reference compound]
IC50 (Aβ42-induced toxicity): 69 µM | SI (Vero E6/ZIKV) (ZIKV strain MR766; [6]): 13 | IC50 (ZIKV strain MR766; Zika virus, Vero C1008, read-out: IC50 ZIKV): 46 µM | Kd (KAA): 30 µM | concentrations required to inhibit enveloped viruses such as HIV-1 and HSV-2 ([1]; Lump et al. (2015) eLife, 4: e05397): median micromolar range | antiviral activity in the presence of serum ([1]; Rocker et al. (2018) Antiviral Res. 152: 26-35): inhibited | bioavailability at 40 min ([2]; 2 mg/kg): 101% | bioavailability at 4 h ([2]; 2 mg/kg): 86.6% | bioavailability at 40 min ([2]; 10 mg/kg): 0.5% | bioavailability at 4 h ([2]; 10 mg/kg): 0% | Kp at 40 min ([2]; iv, 2 mg/kg): 0 | Kp at 4 h ([2]; iv, 2 mg/kg): 0.002 | Kp at 40 min ([2]; po, 10 mg/kg): 0 | Kp at 4 h ([2]; po, 10 mg/kg): 0 | Kp at 40 min ([2]; sc, 2 mg/kg): 0 | Kp at 4 h ([2]; sc, 2 mg/kg): 0 | SI (TZM-bl/HIV-1) (CCR5-tropic HIV-1 strain; [6]): 26 | IC50 (CCR5-tropic HIV-1 strain; Human immunodeficiency virus 1, TZM-bl, read-out: IC50 HIV-1): 37 µM | CC50 at 2 days [3]: 584 µM | Self-toxicity [4]: Non-toxic | LogBB (Full 24-h PK profile; I.V.): −3.62 | Brain AUC (Full 24-h PK profile; I.V.): 1.63 | Brain AUC (Full 24-h PK profile; P.O.): 0 | LogBB (Full 24-h PK profile; S.C.): 0.34 | AUC (Full 24-h PK profile; iv, I.V.): 6800 ng·h/mL | half-life (Full 24-h PK profile; iv, I.V., read-out: Blood T1/2 (converted)): 1.8 h | half-life (Full 24-h PK profile; iv, I.V., read-out: Brain T1/2 (converted)): 4 h | AUC (Full 24-h PK profile; po, P.O.): 8.94 ng·h/mL | half-life (Full 24-h PK profile; po, P.O., read-out: Blood T1/2 (converted)): 1.3 h | bioavailability (Full 24-h PK profile; po, P.O.): 0.1% | AUC (Full 24-h PK profile; sc, S.C.): 4740 ng·h/mL | half-life (Full 24-h PK profile; sc, S.C., read-out: Blood T1/2 (converted)): 1.05 h | half-life (Full 24-h PK profile; sc, S.C., read-out: Brain T1/2 (converted)): 0.9 h | bioavailability (Full 24-h PK profile; sc, S.C.): 69.7% | CC50 at 2 days [5]: 964 µM | Kd (RGD): 86 µM
